# Laboratory results as given in ChEMBL document CHEMBL1133821, “Synthesis and antiinflammatory, analgesic activity of 3,3'-(1,2-ethanediyl)-bis[2-aryl-4-thiazolidinone] chiral compounds. Part 10” (Bioorg Med Chem Lett, 2001).
# Experiments:
# Rattus norvegicus [1] = experiment: Animals with Hyperemia in Carrageenan-induced paw edema test at a dose of 100 mg/kg perorally in rats; type: functional; conditions: route oral
# Rattus norvegicus [2] = experiment: Animals with Ulcers in Carrageenan-induced paw edema test at a dose of 100 mg/kg perorally in rats; type: functional; conditions: route oral
# Rattus norvegicus [3] = experiment: Percent Edema variation in Carrageenan-induced paw edema test at a dose of 100 mg/kg perorally in rats after 120 min; type: functional; conditions: route oral
# Rattus norvegicus [4] = experiment: Percent Edema variation in Carrageenan-induced paw edema test at a dose of 100 mg/kg perorally in rats after 180 min; type: functional; conditions: route oral
# Rattus norvegicus [5] = experiment: Percent Edema variation in Carrageenan-induced paw edema test at a dose of 100 mg/kg perorally in rats after 60 min (p<0.01); type: functional; conditions: route oral
# [6] = Minimum concentration which causes 50% of the Artemia salina larvae to lose mobility; type: ADME, organism-based; conditions: in vivo
# [7] = Peroral dose causing 50% death of the mice population; type: ADME, organism-based; conditions: mouse, in vivo, po
# Rattus norvegicus [8] = experiment: Percent Edema variation in Carrageenan-induced paw edema test at a dose of 100 mg/kg perorally in rats after 60 min; type: functional; conditions: route oral
# Rattus norvegicus [9] = experiment: Reaction time in Hot plate test at a dose of 100 mg/kg perorally in rats after 180 min; type: functional; conditions: route oral
# Rattus norvegicus [10] = experiment: Analgesic activity was determined using acetic acid writing test at a dose of 100 mg/kg perorally in rats.(p<0.01); type: functional; conditions: route oral
# Rattus norvegicus [11] = experiment: Reaction time in Hot plate test at a dose of 100 mg/kg perorally in rats after 120 min; type: functional; conditions: route oral
# Rattus norvegicus [12] = experiment: Number of writhings in Acetic acid Writhing test at a dose of 100 mg/kg perorally in rats; type: functional; conditions: route oral
# Rattus norvegicus [13] = experiment: Reaction time in Hot plate test at a dose of 100 mg/kg perorally in rats after 60 min (p<0.05); type: functional; conditions: route oral
# Rattus norvegicus [14] = experiment: Percent Edema variation in Carrageenan-induced paw edema test at a dose of 100 mg/kg perorally in rats after 120 min (p<0.001); type: functional; conditions: route oral
# Rattus norvegicus [15] = experiment: Percent Edema variation in Carrageenan-induced paw edema test at a dose of 100 mg/kg perorally in rats after 60 min (p<0.001); type: functional; conditions: route oral
# Rattus norvegicus [16] = experiment: Percent Edema variation in Carrageenan-induced paw edema test at a dose of 100 mg/kg perorally in rats after 180 min (p<0.001); type: functional; conditions: route oral
# Rattus norvegicus [17] = experiment: Reaction time in Hot plate test at a dose of 100 mg/kg perorally in rats after 180 min (p<0.05); type: functional; conditions: route oral
# Rattus norvegicus [18] = experiment: Analgesic activity was determined using acetic acid writing test at a dose of 100 mg/kg perorally in rats.; type: functional; conditions: route oral
# Rattus norvegicus [19] = experiment: Reaction time in Hot plate test at a dose of 100 mg/kg perorally in rats after 120 min (p<0.05); type: functional; conditions: route oral
# Rattus norvegicus [20] = experiment: Percent Edema variation in Carrageenan-induced paw edema test at a dose of 100 mg/kg perorally in rats after 120 min (p<0.05); type: functional; conditions: route oral
# Rattus norvegicus [21] = experiment: Analgesic activity was determined using acetic acid writing test at a dose of 100 mg/kg perorally in rats.(p<0.05); type: functional; conditions: route oral
# Rattus norvegicus [22] = experiment: Percent Edema variation in Carrageenan-induced paw edema test at a dose of 100 mg/kg perorally in rats after 180 min (p<0.01); type: functional; conditions: route oral
# Rattus norvegicus [23] = experiment: Percent Edema variation in Carrageenan-induced paw edema test at a dose of 25 mg/kg perorally in rats after 120 min (p<0.01); type: functional; conditions: route oral
# Rattus norvegicus [24] = experiment: Percent Edema variation in Carrageenan-induced paw edema test at a dose of 25 mg/kg perorally in rats after 180 min (p<0.01); type: functional; conditions: route oral
# Rattus norvegicus [25] = experiment: Percent Edema variation in Carrageenan-induced paw edema test at a dose of 25 mg/kg perorally in rats after 60 min (p<0.01); type: functional; conditions: route oral
# Rattus norvegicus [26] = experiment: Percent Edema variation in Carrageenan-induced paw edema test at a dose of 50 mg/kg perorally in rats after 120 min (p<0.01); type: functional; conditions: route oral
# Rattus norvegicus [27] = experiment: Percent Edema variation in Carrageenan-induced paw edema test at a dose of 50 mg/kg perorally in rats after 180 min (p<0.01); type: functional; conditions: route oral
# Rattus norvegicus [28] = experiment: Percent Edema variation in Carrageenan-induced paw edema test at a dose of 50 mg/kg perorally in rats after 60 min (p<0.01); type: functional; conditions: route oral
# Rattus norvegicus [29] = experiment: Reaction time in Hot plate test at a dose of 100 mg/kg perorally in rats after 180 min (p<0.001); type: functional; conditions: route oral
# Rattus norvegicus [30] = experiment: Reaction time in Hot plate test at a dose of 100 mg/kg perorally in rats after 60 min (p<0.01); type: functional; conditions: route oral
# Rattus norvegicus [31] = experiment: Analgesic activity was determined using acetic acid writing test at a dose of 100 mg/kg perorally in rats. (p<0.01); type: functional; conditions: route oral
# Rattus norvegicus [32] = experiment: Reaction time in Hot plate test at a dose of 100 mg/kg perorally in rats after 120 min (p<0.01); type: functional; conditions: route oral
# [33] = Animals with Hyperemia in Carrageenan-induced paw edema test at a dose of 25 mg/kg perorally in rats; type: functional; conditions: route oral
# [34] = Animals with Hyperemia in Carrageenan-induced paw edema test at a dose of 50 mg/kg perorally in rats; type: functional; conditions: route oral
# [35] = Animals with Ulcers in Carrageenan-induced paw edema test at a dose of 25 mg/kg perorally in rats; type: functional; conditions: route oral
# [36] = Animals with Ulcers in Carrageenan-induced paw edema test at a dose of 50 mg/kg perorally in rats; type: functional; conditions: route oral
# Rattus norvegicus [37] = experiment: Animals with Hyperemia in Carrageenan-induced paw edema test at a dose of 5 mg/kg perorally in rats; type: functional; conditions: route oral
# Rattus norvegicus [38] = experiment: Animals with Ulcers in Carrageenan-induced paw edema test at a dose of 5 mg/kg perorally in rats; type: functional; conditions: route oral
# Rattus norvegicus [39] = experiment: Percent Edema variation in Carrageenan-induced paw edema test at a dose of 5 mg/kg perorally in rats after 120 min; type: functional; conditions: route oral
# Rattus norvegicus [40] = experiment: Percent Edema variation in Carrageenan-induced paw edema test at a dose of 5 mg/kg perorally in rats after 180 min (p<0.01); type: functional; conditions: route oral
# Rattus norvegicus [41] = experiment: Percent Edema variation in Carrageenan-induced paw edema test at a dose of 5 mg/kg perorally in rats after 60 min; type: functional; conditions: route oral
# Rattus norvegicus [42] = experiment: Reaction time in Hot plate test at a dose of 5 mg/kg perorally in rats after 120 min (p<0.01); type: functional; conditions: route oral
# Rattus norvegicus [43] = experiment: Reaction time in Hot plate test at a dose of 5 mg/kg perorally in rats after 180 min (p<0.01); type: functional; conditions: route oral
# Rattus norvegicus [44] = experiment: Reaction time in Hot plate test at a dose of 5 mg/kg perorally in rats after 60 min (p<0.01); type: functional; conditions: route oral
# Rattus norvegicus [45] = experiment: Analgesic activity was determined using acetic acid writing test at a dose of 5 mg/kg perorally in rats. (p<0.01); type: functional; conditions: route oral
# Rattus norvegicus [46] = experiment: Number of writhings in Acetic acid Writhing test at a dose of 5 mg/kg perorally in rats; type: functional; conditions: route oral
smiles,measurement,setting,value
O=C1CSC(c2cccc([N+](=O)[O-])c2)N1CCN1C(=O)CSC1c1cccc([N+](=O)[O-])c1 (stereo not drawn),Animals,Rattus norvegicus [1],40%
same,Animals,Rattus norvegicus [2],0%
same,Edema variation,Rattus norvegicus [3],-0.31%
same,Edema variation,Rattus norvegicus [4],23.43%
same,Edema variation,Rattus norvegicus [5],-35.52%
same,LC50,[6],> 1000 mg/L
same,LD50,[7],> 1000 mg/kg
COc1ccc([C@H]2SCC(=O)N2CCN2C(=O)CS[C@H]2c2ccc(OC)c(F)c2)cc1F,Animals,Rattus norvegicus [1],20%
same,Animals,Rattus norvegicus [2],40%
same,Edema variation,Rattus norvegicus [3],25.12%
same,Edema variation,Rattus norvegicus [4],30.11%
same,Edema variation,Rattus norvegicus [8],22.13%
same,Reaction time,Rattus norvegicus [9],12.5 s
same,inhibition in vivo at 100 mg/kg,Rattus norvegicus [10],50%
same,Reaction time,Rattus norvegicus [11],12.3 s
same,No. of writhings,Rattus norvegicus [12],10.2
same,LC50,[6],> 1000 mg/L
same,LD50,[7],> 1000 mg/kg
same,Reaction time,Rattus norvegicus [13],16.1 s
O=C1CS[C@H](c2cccc([N+](=O)[O-])c2)N1CCN1C(=O)CS[C@H]1c1cccc([N+](=O)[O-])c1,Animals,Rattus norvegicus [1],40%
same,Animals,Rattus norvegicus [2],0%
same,Edema variation,Rattus norvegicus [14],-67.3%
same,Edema variation,Rattus norvegicus [15],-83.3%
same,Edema variation,Rattus norvegicus [16],21.11%
same,Reaction time,Rattus norvegicus [17],22 s
same,inhibition in vivo at 100 mg/kg,Rattus norvegicus [18],13%
same,Reaction time,Rattus norvegicus [19],19.4 s
same,No. of writhings,Rattus norvegicus [12],17.8
same,LC50,[6],> 1000 mg/L
same,LD50,[7],> 1000 mg/kg
same,Reaction time,Rattus norvegicus [13],17.1 s
O=C1CSC(c2ccc(Cl)c(Cl)c2)N1CCN1C(=O)CSC1c1ccc(Cl)c(Cl)c1 (stereo not drawn),Animals,Rattus norvegicus [1],40%
same,Animals,Rattus norvegicus [2],0%
same,Edema variation,Rattus norvegicus [20],-31.41%
same,Edema variation,Rattus norvegicus [4],-27.48%
same,Edema variation,Rattus norvegicus [8],14.04%
same,Reaction time,Rattus norvegicus [17],19.8 s
same,inhibition in vivo at 100 mg/kg,Rattus norvegicus [21],24%
same,Reaction time,Rattus norvegicus [19],18.4 s
same,No. of writhings,Rattus norvegicus [12],15.2
same,LC50,[6],> 1000 mg/L
same,LD50,[7],> 1000 mg/kg
same,Reaction time,Rattus norvegicus [13],20 s
COc1ccc([C@H]2SCC(=O)N2CCN2C(=O)CS[C@H]2c2ccc(OC)c(OC)c2)cc1OC,Animals,Rattus norvegicus [1],20%
same,Animals,Rattus norvegicus [2],0%
same,Edema variation,Rattus norvegicus [14],-62.33%
same,Edema variation,Rattus norvegicus [22],-58.01%
same,Edema variation,Rattus norvegicus [5],-58.28%
same,Edema variation,Rattus norvegicus [23],-53.28%
same,Edema variation,Rattus norvegicus [24],-40.09%
same,Edema variation,Rattus norvegicus [25],-38.33%
same,Edema variation,Rattus norvegicus [26],-59.49%
same,Edema variation,Rattus norvegicus [27],-44.26%
same,Edema variation,Rattus norvegicus [28],-53.62%
same,Reaction time,Rattus norvegicus [29],36.4 s
same,Reaction time,Rattus norvegicus [30],26.6 s
same,inhibition in vivo at 100 mg/kg,Rattus norvegicus [31],51%
same,Reaction time,Rattus norvegicus [32],26.8 s
same,No. of writhings,Rattus norvegicus [12],10
same,LC50,[6],> 1000 mg/L
same,LD50,[7],> 1000 mg/kg
same,Animals,[33],20%
same,Animals,[34],20%
same,Animals,[35],0%
same,Animals,[36],0%
COc1ccc2c(c1)c(CC(=O)O)c(C)n2C(=O)c1ccc(Cl)cc1 [INDOMETHACIN],Animals,Rattus norvegicus [37],100%
same,Animals,Rattus norvegicus [38],80%
same,Edema variation,Rattus norvegicus [39],-10.85%
same,Edema variation,Rattus norvegicus [40],-50.86%
same,Edema variation,Rattus norvegicus [41],-15.4%
same,Reaction time,Rattus norvegicus [42],27.1 s
same,Reaction time,Rattus norvegicus [43],28 s
same,Reaction time,Rattus norvegicus [44],26.1 s
same,inhibition in vivo at 5 mg/kg,Rattus norvegicus [45],80%
same,No. of writhings,Rattus norvegicus [46],4
same,LD50,[7],15 mg/kg
COc1ccc(C2SCC(=O)N2CCN2C(=O)CSC2c2ccc(OC)c(OC)c2)cc1OC (stereo not drawn),Animals,Rattus norvegicus [1],20%
same,Animals,Rattus norvegicus [2],0%
same,Edema variation,Rattus norvegicus [20],-30.13%
same,Edema variation,Rattus norvegicus [16],-76.62%
same,Edema variation,Rattus norvegicus [8],-2.13%
same,Reaction time,Rattus norvegicus [17],16.8 s
same,Reaction time,Rattus norvegicus [30],30.4 s
same,inhibition in vivo at 100 mg/kg,Rattus norvegicus [31],53%
same,Reaction time,Rattus norvegicus [32],26.7 s
same,No. of writhings,Rattus norvegicus [12],9.6
same,LC50,[6],> 1000 mg/L
same,LD50,[7],> 1000 mg/kg
